For two compounds, Kd results are on record in publication PMC6770577, “TRPM6 N-Terminal CaM- and S100A1-Binding Domains” (International Journal of Molecular Sciences, 2019).

Structures are written as SMILES.

For the experiment, the target named is T1, S100A1 (Homo sapiens, UniProt P23297).
T1 construct: made in house; host or cells: E. coli BL21
T1 sequence (P23297 1-94): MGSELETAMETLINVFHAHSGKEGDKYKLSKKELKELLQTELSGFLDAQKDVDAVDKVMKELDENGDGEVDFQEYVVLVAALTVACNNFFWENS
The experiment can be described thus: Steady-state fluorescence anisotropy binding assay, FITC-labelled TRPM6np peptides titrated with S100A1. Conditions: 1 μM N-terminally FITC-labelled peptide titrated with 100 μM S100A1, 50 mM Tris-HCl pH 7.5, 150 mM NaCl, 2 mM CaCl2, room temperature, at least five measurements, read-out: KD, equilibrium dissociation constant of the TRPM6np/S100A1 complex. Here is the method: Steady-state fluorescence anisotropy experiments were performed at room temperature on a photon counting spectrometer PC1 (ISS Inc., Champaign, Illinois, USA). TRPM6npWT and its mutants were dissolved in a buffer containing 50 mM Tris-HCl (pH 7.5), 150 mM NaCl, and 2 mM CaCl2 for a final concentration of 1 μM. The samples were titrated in a 2-mm path cuvette with increasing aliquots of 100 μM CaM or S100A1. Fluorescence was excited at 495 nm; the intensity of emission in parallel (III) and perpendicular (I﬩) orientations to the direction of the polarised excitation was obtained at 520 nm by switching the emission polariser. The steady-state fluorescence anisotropy value (r) was calculated from the equation r = (III − I﬩) / (III + 2I﬩). […] Q represents the quantum yield ratio of the bound to the free peptide, calculated from fluorescence lifetimes (τ) according to equation Q = τbound/τfree. […]
Lifetimes were evaluated at room temperature in a drop placed on a coverslip and inserted into an inverted confocal microscope IX83 (Olympus, Tokyo, Japan) equipped with time-correlated single photon counting electronics and cooled GaAsP hybrid detectors (all PicoQuant, Berlin, Germany). […] fluorescence was excited at 485 nm by an LDH-485 picosecond laser (PicoQuant, Berlin, Germany). […]

Turning to `CC[C@H](C)[C@H](NC(=O)[C@H](CC(C)C)NC(=S)Nc1ccc2c(c1)C(=O)OC21c2ccc(O)cc2Oc2cc(O)ccc21)C(=O)NCC(=O)N[C@@H](CCCNC(=N)N)C(=O)N[C@@H](C)C(=O)N[C@@H](Cc1ccc(O)cc1)C(=O)N[C@@H](CCCNC(=N)N)C(=O)N[C@@H](CO)C(=O)N[C@@H](CC(N)=O)C(=O)N[C@@H](Cc1ccc(O)cc1)C(=O)N[C@H](C(=O)N[C@@H](C)C(=O)N[C@@H](C)C(=O)N[C@@H](Cc1c[nH]cn1)C(=O)N[C@@H](Cc1ccccc1)C(=O)N[C@@H](CCCNC(=N)N)C(=O)O)[C@@H](C)O` [K532A/R531A], the Kd was 50.2 µM.

In the case of `CC[C@H](C)[C@H](NC(=O)[C@H](CC(C)C)NC(=S)Nc1ccc2c(c1)C(=O)OC21c2ccc(O)cc2Oc2cc(O)ccc21)C(=O)NCC(=O)N[C@@H](CCCNC(=N)N)C(=O)N[C@@H](C)C(=O)N[C@@H](Cc1ccc(O)cc1)C(=O)N[C@@H](CCCNC(=N)N)C(=O)N[C@@H](CO)C(=O)N[C@@H](CC(N)=O)C(=O)N[C@@H](Cc1ccc(O)cc1)C(=O)N[C@H](C(=O)N[C@@H](CCCNC(=N)N)C(=O)N[C@@H](C)C(=O)N[C@@H](Cc1c[nH]cn1)C(=O)N[C@@H](Cc1ccccc1)C(=O)N[C@@H](CCCNC(=N)N)C(=O)O)[C@@H](C)O` [K532A], the Kd is 24.8 µM.
